*1 amine or outer side, *2 acyl side, *3 side chain or, on linkers, in order; H or OH if unused. Where a SMILES comes first, the peptide text is derived from it. [ ]: non-standard residue; d: D form. Phe(4-(trans-4-COOH-cHex)) = N[C@@H](Cc1ccc([C@H]2CC[C@H](C(=O)O)CC2)cc1)C(=O)O; Trp(4-Cl)(βS-Me) = C[C@@H](c1c[nH]c2cccc(Cl)c12)[C@H](N)C(=O)O; Trp(βS-Me,4-F) = C[C@@H](c1c[nH]c2cccc(F)c12)[C@H](N)C(=O)O; Bip(4'-COOH) = N[C@@H](Cc1ccc(-c2ccc(C(=O)O)cc2)cc1)C(=O)O; X1 = CC(=O)N1CCN(c2ccc(C[C@H](N[*:1])C(=O)[*:2])cn2)CC1; 1Nal(3S-Me) = C[C@@H](c1cccc2ccccc12)[C@H](N)C(=O)O; Phe(4-COOH) = N[C@@H](Cc1ccc(C(=O)O)cc1)C(=O)O; Trp(6-F) = N[C@@H](Cc1c[nH]c2cc(F)ccc12)C(=O)O; h3Pal(5-CN) = N#Cc1cncc(CC[C@H](N)C(=O)O)c1; Pro(4R-NH2) = N[C@H]1CN[C@H](C(=O)O)C1; 1Nal = N[C@@H](Cc1cccc2ccccc12)C(=O)O; Ala(4-THP) = N[C@@H](CC1CCOCC1)C(=O)O; AEF = NCCOc1ccc(C[C@H](N)C(=O)O)cc1; hTyr = N[C@@H](CCc1ccc(O)cc1)C(=O)O; hCha = N[C@@H](CCC1CCCCC1)C(=O)O; 4Pal = N[C@@H](Cc1ccncc1)C(=O)O; Dap(Me2) = CN(C)C[C@H](N)C(=O)O; dDab = NCC[C@@H](N)C(=O)O; dNMeA = CN[C@H](C)C(=O)O; Dab = NCC[C@H](N)C(=O)O; Dap = NC[C@H](N)C(=O)O; Aib = CC(C)(N)C(=O)O
molecular target: T1, Recombinant human IL-1β (Homo sapiens, UniProt P01584); experiment: IL-6 assay in MRC5 cells: inhibition of IL-1β induced IL-6 secretion (AlphaLISA); format: cell-based; details: inhibition of IL-1β induced IL-6 secretion in MRC5 cells; IL-1β pre-incubated 1 hour with compound; read-out: MRC5 IC50
T1 construct: purchased BioLegend 579404
Description: Procedure for IL-6 Assay in MRC5 Cells
The inhibition of IL-1β induced IL-6 secretion was evaluated in MRC5 cells. Recombinant human IL-1β (BioLegend 579404) at 2×EC80 concentration was prepared in seeding medium, EMEM (ATCC 30-2003) with 0.025% BSA (Sigma A9576), 1× penicillin/streptomycin (Gibco 15070-063), 1×NEAA (Gibco 11140-050), 1× GlutaMax (Gibco 35050-061), and 1× sodium pyruvate (Gibco 11360-070). 20 μL of IL-1β was added to a 384-well collagen-coated plate (Corning 354664) and pre-incubated at ambient temperature for 1 hour with 200 nL of compound dispensed using an ECHO 555 liquid handler. Human lung fibroblast MRC5 cells (ATCC CCL-171) were added at a density of 3000 cells/20 μL per well. The cells were prepared by passaging three times in growth medium, EMEM (ATCC 30-2003) with 10% fetal bovine serum (Gibco 16140-071), 1× penicillin/streptomycin (Gibco 15070-063), 1×NEAA (Gibco 11140-050), 1× GlutaMax (Gibco 35050-061), and 1× sodium pyruvate (Gibco 11360-070) in collagen-coated T175 flasks (Greiner 661950) and harvested in seeding medium after 5 minutes of 0.25% trypsin-EDTA (Gibco 25200-056) digestion. The 384-well collagen-coated plate, containing a final volume of 40 μL, was incubated at 37° C., 5% CO2 overnight. 5 μL of the conditioned medium was transferred to a 384-well AlphaLISA plate (PerkinElmer 6005350) for detection of IL-6 using the human AlphaLISA IL-6 kit (PerkinElmer AL223F) as per the manufacturer's protocol. 20 μL of the acceptor bead/biotinylated antibody mix was added to the 384-well AlphaLISA plate and incubated for 1 hour at ambient temperature. The donor bead mix was protected from light and 25 μL was added to the plate and incubated for 30 minutes at ambient temperature. The AlphaLISA plate was read on an EnVision multimode plate reader (Perkin Elmer model 2104) using the AlphaScreen setting (laser exc at 680 nm and emis at 570 nm). Dose response curves and IC50 values were analyzed using a 4-parameter logistic equation in Spotfire software (Tibco, Palo Alto, CA).

T1 sequence (P01584 117-269): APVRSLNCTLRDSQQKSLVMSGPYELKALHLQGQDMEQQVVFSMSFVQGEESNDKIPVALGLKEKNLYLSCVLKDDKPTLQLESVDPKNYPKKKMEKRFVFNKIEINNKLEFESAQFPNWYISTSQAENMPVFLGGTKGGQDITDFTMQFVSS

Structure (SMILES) | IC50
CC(=O)N1CCN(c2ccc(C[C@@H]3NC(=O)[C@H](CCc4ccc(O)cc4)NC(=O)[C@@H](CCN)NC(=O)CNC(=O)[C@H](Cc4c[nH]c5ccccc45)NC(=O)[C@H](Cc4ccc(-c5ccc(C(=O)O)cc5)cc4)NC(=O)CNC(=O)[C@@H](C)N(C)C(=O)[C@H](CC(=O)O)NC(=O)[C@H]([C@@H](C)c4c[nH]c5cccc(F)c45)NC(=O)[C@@H]4C[C@@H](N)CN4C(=O)CNC(=O)[C@H](Cc4ccc(C(=O)O)cc4)NC(=O)[C@H](Cc4c[nH]c5ccccc45)NC3=O)cn2)CC1 [Example 8] (cyclo([X1]W[Phe(4-COOH)]G[Pro(4R-NH2)][Trp(βS-Me,4-F)]D[dNMeA]G[Bip(4'-COOH)]WG[dDab][hTyr])) | 140 pM
CC(C)C[C@@H]1NC(=O)[C@H](Cc2cccc3ccccc23)NC(=O)[C@H](Cc2ccc(-c3ccc(C(=O)O)cc3)cc2)NC(=O)CNC(=O)[C@@H](C)N(C)C(=O)[C@H](CC(=O)O)NC(=O)[C@H]([C@@H](C)c2cccc3ccccc23)NC(=O)[C@@H]2C[C@@H](N)CN2C(=O)CNC(=O)[C@H](Cc2ccc(C(=O)O)cc2)NC(=O)[C@H](Cc2c[nH]c3ccccc23)NC(=O)[C@H](Cc2ccc(-c3ccc(C(=O)O)cc3)cc2)NC(=O)CNC(=O)C(C)(C)NC1=O [Example 19] (cyclo([Bip(4'-COOH)]W[Phe(4-COOH)]G[Pro(4R-NH2)][1Nal(3S-Me)]D[dNMeA]G[Bip(4'-COOH)][1Nal]L[Aib]G)) | 118 pM
C[C@@H]1C(=O)NCC(=O)N[C@@H](Cc2ccc(-c3ccc(C(=O)O)cc3)cc2)C(=O)N[C@@H](Cc2c[nH]c3ccccc23)C(=O)NCC(=O)N[C@H](CCN)C(=O)N[C@@H](CCc2ccc(O)cc2)C(=O)N[C@@H](Cc2ccc(-c3ccc(C(=O)O)cc3)cc2)C(=O)N[C@@H](Cc2c[nH]c3ccccc23)C(=O)N[C@@H](Cc2ccc(C(=O)O)cc2)C(=O)NCC(=O)N2C[C@H](N)C[C@H]2C(=O)N[C@@H]([C@@H](C)c2cccc3ccccc23)C(=O)N[C@@H](CC(=O)O)C(=O)N1C [Example 32] (cyclo([Bip(4'-COOH)]W[Phe(4-COOH)]G[Pro(4R-NH2)][1Nal(3S-Me)]D[dNMeA]G[Bip(4'-COOH)]WG[dDab][hTyr])) | 33 pM
C[C@@H]1C(=O)NCC(=O)N[C@@H](Cc2ccc(-c3ccc(C(=O)O)cc3)cc2)C(=O)N[C@@H](CC2CCOCC2)C(=O)N[C@@H](CN)C(=O)N[C@H](C)C(=O)N[C@@H](CCc2cncc(C#N)c2)C(=O)N[C@@H](Cc2ccc(-c3ccc(C(=O)O)cc3)cc2)C(=O)N[C@@H](Cc2c[nH]c3ccccc23)C(=O)N[C@@H](Cc2ccc(C(=O)O)cc2)C(=O)NCC(=O)N2C[C@H](N)C[C@H]2C(=O)N[C@@H]([C@@H](C)c2cccc3ccccc23)C(=O)N[C@@H](CC(=O)O)C(=O)N1C [Example 23] (cyclo([Bip(4'-COOH)]W[Phe(4-COOH)]G[Pro(4R-NH2)][1Nal(3S-Me)]D[dNMeA]G[Bip(4'-COOH)][Ala(4-THP)][Dap][dA][h3Pal(5-CN)])) | 11.2 pM

Results, then the compound that gave them:

IC50 | Structure (SMILES)
134 pM | C[C@@H]1C(=O)NCC(=O)N[C@@H](Cc2ccc(-c3ccc(C(=O)O)cc3)cc2)C(=O)N[C@@H](CCCCN)C(=O)N[C@@H](CO)C(=O)N[C@H](CCN)C(=O)N[C@@H](CCc2ccc(O)cc2)C(=O)N[C@@H](Cc2ccc(-c3ccc(C(=O)O)cc3)cc2)C(=O)N[C@@H](Cc2c[nH]c3ccccc23)C(=O)N[C@@H](Cc2ccc(C(=O)O)cc2)C(=O)NCC(=O)N2C[C@H](N)C[C@H]2C(=O)N[C@@H]([C@@H](C)c2c[nH]c3cccc(Cl)c23)C(=O)N[C@@H](CC(=O)O)C(=O)N1C [Example 46] (cyclo([Bip(4'-COOH)]W[Phe(4-COOH)]G[Pro(4R-NH2)][Trp(4-Cl)(βS-Me)]D[dNMeA]G[Bip(4'-COOH)]KS[dDab][hTyr]))
36.2 pM | CC(C)C[C@@H]1NC(=O)[C@H](Cc2ccncc2)NC(=O)[C@H](Cc2ccc(-c3ccc(C(=O)O)cc3)cc2)NC(=O)CNC(=O)[C@@H](C)N(C)C(=O)[C@H](CC(=O)O)NC(=O)[C@H]([C@@H](C)c2c[nH]c3cccc(F)c23)NC(=O)[C@@H]2C[C@@H](N)CN2C(=O)CNC(=O)[C@H](Cc2ccc(C(=O)O)cc2)NC(=O)[C@H](Cc2c[nH]c3ccccc23)NC(=O)[C@H](Cc2ccc(-c3ccc(C(=O)O)cc3)cc2)NC(=O)[C@H](CCc2ccc(O)cc2)NC(=O)[C@@H](C)NC1=O [Example 59] (cyclo([Bip(4'-COOH)]W[Phe(4-COOH)]G[Pro(4R-NH2)][Trp(βS-Me,4-F)]D[dNMeA]G[Bip(4'-COOH)][4Pal]L[dA][hTyr]))

same assay, conditions: inhibition of IL-1β induced IL-6 secretion in MRC5 cells; read-out: MRC5 IC50

IC50 | Structure (SMILES)
15 pM | C[C@@H]1C(=O)NCC(=O)N[C@@H](Cc2ccc(-c3ccc(C(=O)O)cc3)cc2)C(=O)N[C@@H](Cc2ccncc2)C(=O)NCC(=O)N[C@H](CCN)C(=O)N[C@@H](CCC2CCCCC2)C(=O)N[C@@H](Cc2ccc([C@H]3CC[C@H](C(=O)O)CC3)cc2)C(=O)N[C@@H](Cc2c[nH]c3cc(F)ccc23)C(=O)N[C@@H](Cc2ccc(C(=O)O)cc2)C(=O)NCC(=O)N2C[C@H](N)C[C@H]2C(=O)N[C@@H]([C@@H](C)c2cccc3ccccc23)C(=O)N[C@@H](CC(=O)O)C(=O)N1C [Example 192] (cyclo([Phe(4-(trans-4-COOH-cHex))][Trp(6-F)][Phe(4-COOH)]G[Pro(4R-NH2)][1Nal(3S-Me)]D[dNMeA]G[Bip(4'-COOH)][4Pal]G[dDab][hCha]))
114 pM | CC(=O)NCCOc1ccc(C[C@@H]2NC(=O)[C@H](CCc3ccc(O)cc3)NC(=O)[C@@H](C)NC(=O)[C@H](CN(C)C)NC(=O)[C@H](Cc3c[nH]c4ccccc34)NC(=O)[C@H](Cc3ccc(-c4ccc(C(=O)O)cc4)cc3)NC(=O)CNC(=O)[C@@H](C)N(C)C(=O)[C@H](CC(=O)O)NC(=O)[C@H]([C@@H](C)c3c[nH]c4cccc(Cl)c34)NC(=O)[C@@H]3C[C@@H](N)CN3C(=O)CNC(=O)[C@H](Cc3ccc(C(=O)O)cc3)NC(=O)[C@H](Cc3c[nH]c4ccccc34)NC2=O)cc1 [Example 146] (cyclo([AEF](Ac)W[Phe(4-COOH)]G[Pro(4R-NH2)][Trp(4-Cl)(βS-Me)]D[dNMeA]G[Bip(4'-COOH)]W[Dap(Me2)][dA][hTyr]))
9 pM | CC(=O)NCCCC[C@H]1NC(=O)[C@H](CC(C)C)NC(=O)[C@H](CCCCN)NC(=O)[C@H](Cc2ccc(-c3ccc(C(=O)O)cc3)cc2)NC(=O)CNC(=O)[C@@H](C)N(C)C(=O)[C@H](CC(=O)O)NC(=O)[C@H]([C@@H](C)c2c[nH]c3cccc(F)c23)NC(=O)[C@@H]2C[C@@H](N)CN2C(=O)CNC(=O)[C@H](Cc2ccc(C(=O)O)cc2)NC(=O)[C@H](Cc2c[nH]c3ccccc23)NC(=O)[C@H](Cc2ccc(-c3ccc(C(=O)O)cc3)cc2)NC(=O)[C@H](CCc2ccc(O)cc2)NC1=O [Example 187] (cyclo([Bip(4'-COOH)]W[Phe(4-COOH)]G[Pro(4R-NH2)][Trp(βS-Me,4-F)]D[dNMeA]G[Bip(4'-COOH)]KL[dK](Ac)[hTyr]))
196 pM | CC(=O)NCCOc1ccc(C[C@@H]2NC(=O)[C@H](CCc3ccc(O)cc3)NC(=O)[C@@H](C)NC(=O)[C@H](CCN)NC(=O)[C@H](Cc3cccc4ccccc34)NC(=O)[C@H](Cc3ccc(-c4ccc(C(=O)O)cc4)cc3)NC(=O)CNC(=O)[C@@H](C)N(C)C(=O)[C@H](CC(=O)O)NC(=O)[C@H]([C@@H](C)c3c[nH]c4cccc(F)c34)NC(=O)[C@@H]3C[C@@H](N)CN3C(=O)CNC(=O)[C@H](Cc3ccc(C(=O)O)cc3)NC(=O)[C@H](Cc3c[nH]c4ccccc34)NC2=O)cc1 [Example 154] (cyclo([AEF](Ac)W[Phe(4-COOH)]G[Pro(4R-NH2)][Trp(βS-Me,4-F)]D[dNMeA]G[Bip(4'-COOH)][1Nal][Dab][dA][hTyr]))

Reference: patent publication US20230406885A1, “CYCLIC PEPTIDES FOR TRAPPING INTERLEUKIN-1 BETA” (MERCK SHARP & DOHME LLC, priority 2022, published 2023)
